Data reported in patent publication US9890133B2 (priority 2011, dated 2018).
In brackets after ≈: the same amount, converted by molar mass.

Assay: in vitro
Settings: human

SMILES	CC50 (Picorana CC50)	CC50
CC(=O)Nc1c(N)ccc2c1C(=O)C1(O)c3ccc(C(C)C)cc3OC21O (stereo not shown) [Example 59, N-(2-Amino-4b,9b-dihydroxy-7-isopropyl-10-oxo-9b,10-dihydro-4bH-benzo[d]indeno[1,2-b]furan-1-yl)acetamide]	> 50 µg/mL	
CC(C)c1ccc2c(c1)OC1(O)c3ccc([N+](=O)[O-])c(N)c3C(=O)C21O (stereo not shown) [Example 60, 1-Amino-4b,9b-dihydroxy-7-isopropyl-2-nitro-4bH-indeno[1,2-b]benzofuran-10(9bH)-one]	10.6 µg/mL (≈ 29.6 µM)	
CC(C)c1cc(C(C)C)c2c(c1)C1(O)C(=O)c3ccccc3C1(O)O2 (stereo not shown) [Example 64, 4b,9b-Dihydroxy-6,8-diisopropyl-4b,9b-dihydro-5-oxa-indeno[2,1-a]inden-10-one]	8.13 µg/mL (≈ 24 µM)	
CC(C)c1ccc2c(c1)OC1(O)c3ccccc3C(=O)C21N (stereo not shown) [Example 65, 9b-Amino-4b-hydroxy-7-isopropyl-4b,9b-dihydro-5-oxa-indeno[2,1-a]inden-10-one]	18.2 µg/mL (≈ 61.6 µM)	
CCCCCCNC12C(=O)c3ccccc3C1(O)Oc1cc(C(C)C)ccc12 (stereo not shown) [Example 67, 9b-Hexylamino-4b-hydroxy-7-isopropyl-4b,9b-dihydro-5-oxa-indeno[2,1-a]inden-10-one]	9.42 µg/mL (≈ 24.8 µM)	
CC(C)c1cc(C(C)C)c2c(c1)C1(N)C(=O)c3ccccc3C1(O)O2 (stereo not shown) [Example 68, 9b-Amino-4b-hydroxy-6,8-diisopropyl-4b,9b-dihydro-5-oxa-indeno[2,1-a]inden-10-one]	8.94 µg/mL (≈ 26.5 µM)	
CC(C)c1ccc2c(c1)OC1(O)c3ccccc3C(=O)C21N=C=O (stereo not shown) [Example 69, 4b-Hydroxy-9b-isocyanato-7-isopropyl-4b,9b-dihydro-5-oxa-indeno[2,1-a]-inden-10-one]	70 µg/mL (≈ 218 µM)	
CC(C)NC(=O)NC12C(=O)c3c([N+](=O)[O-])cccc3C1(O)Oc1cc(C(C)C)ccc12 (stereo not shown) [Example 76, 1-(4b-Hydroxy-7-isopropyl-1-nitro-10-oxo-4b,10-dihydro-5-oxa-indeno[2,1-a]inden-9b-yl)-3-isopropyl-urea]	> 50 µg/mL	
CC(C)C(=O)NC12C(=O)c3c(N)cccc3C1(O)Oc1cc(C(C)C)ccc12 (stereo not shown) [Example 77, N-(1-Amino-4b-hydroxy-7-isopropyl-10-oxo-4b,10-dihydro-5-oxa-indeno[2,1-a]inden-9b-yl)-isobutylamide]	> 50 µg/mL	53.9 µg/mL (≈ 142 µM)
CCCCC(=O)NC12C(=O)c3c(N)cccc3C1(O)Oc1cc(C(C)C)ccc12 (stereo not shown) [Example 78, Pentanoic acid (1-amino-4b-hydroxy-7-isopropyl-10-oxo-4b,10-dihydro-5-oxa-indeno[2,1-a]inden-9b-yl)-amide]	47.7 µg/mL (≈ 121 µM)	20.6 µg/mL (≈ 52.3 µM)
CO/N=C1/c2ccccc2C2(O)Oc3cc(C(C)C)ccc3C12O (stereo not shown) [Example 88, 4b,9b-Dihydroxy-7-isopropyl-4bH-indeno[1,2-b]benzofuran-10(9bH)-one O-methyl oxime]	8.16 µg/mL (≈ 25.1 µM)	
CCCC(=O)NC12C(=O)c3ccccc3C1(OC(=O)CCC)Oc1cc(C(C)C)ccc12 (stereo not shown) [Example 89, Butyric acid 9b-butyrylamino-7-isopropyl-10-oxo-9b,10-dihydro-5-oxa-indeno[2,1-a]inden-4b-yl ester]	> 50 µg/mL	
CCCCCCCC(=O)NC12C(=O)c3ccccc3C1(O)Oc1cc(C(C)C)ccc12 (stereo not shown) [Example 90]	34 µg/mL (≈ 80.5 µM)	
CCCCCC(=O)NC12C(=O)c3ccccc3C1(OC(=O)CCCCC)Oc1cc(C(C)C)ccc12 (stereo not shown) [Example 91, Hexanoic acid 9b-hexanoylamino-7-isopropyl-10-oxo-9b,10-dihydro-5-oxa-indeno[2,1-a]inden-4b-yl ester]	> 50 µg/mL	
CCCCCCC(=O)NC12C(=O)c3ccccc3C1(OC(=O)CCCCCC)Oc1cc(C(C)C)ccc12 (stereo not shown) [Example 92, Heptanoic acid 9b-heptanoylamino-7-isopropyl-10-oxo-9b,10-dihydro-5-oxa-indeno[2,1-a]inden-4b-yl ester]	> 50 µg/mL	
CCCCCCCC(=O)N[C@@]12C(=O)c3c(N)cccc3[C@]1(O)Oc1cc(C(C)C)ccc12 [Example 93, N-((4bS,9bS)-1-Amino-4b-hydroxy-7-isopropyl-10-oxo-9b,10-dihydro-4bH-indeno[1,2-b]benzofuran-9b-yl)octanamide]	8.49 µg/mL (≈ 19.4 µM)	6.23 µg/mL (≈ 14.3 µM)
CCC(=O)N[C@@]12C(=O)c3c(N)cccc3[C@]1(OC(=O)CC)Oc1cc(C(C)C)ccc12 [Example 94, (4bR,9bS)-1-Amino-7-isopropyl-10-oxo-9b-propionamido-9b,10-dihydro-4bH-indeno[1,2-b]benzofuran-4b-yl propionate]	42.4 µg/mL (≈ 100 µM)	58.1 µg/mL (≈ 137 µM)
CCCC(=O)N[C@@]12C(=O)c3c(N)cccc3[C@]1(OC(=O)CCC)Oc1cc(C(C)C)ccc12 [Example 95, (4bR,9bS)-1-Amino-9b-butyramido-7-isopropyl-10-oxo-9b,10-dihydro-4bH-indeno[1,2-b]benzofuran-4b-yl butyrate]	38.1 µg/mL (≈ 84.5 µM)	26 µg/mL (≈ 57.7 µM)
CCCCCC(=O)NC12C(=O)c3c(N)cccc3C1(OC(=O)CCCCC)Oc1cc(C(C)C)ccc12 (stereo not shown) [Example 97, 1-amino-9b-hexanamido-7-isopropyl-10-oxo-9b,10-dihydro-4bH-benzo[d]indeno[1,2-b]furan-4b-yl hexanoate]	> 50 µg/mL	8.8 µg/mL (≈ 17.4 µM)
CO[C@@]12C(=O)c3ccccc3[C@]1(O)Oc1cc(C(C)C)ccc12 [Example 98, (4bS,9bS)-4b-Hydroxy-7-isopropyl-9b-methoxy-4bH-indeno[1,2-b]benzofuran-10(9bH)-one]	7.8 µg/mL (≈ 25.1 µM)	

SMILES	CC50 (Picorana CC50)	CC50
CCCCCCC(=O)NC12C(=O)c3c(N)cccc3C1(OC(=O)CCCCCC)Oc1cc(C(C)C)ccc12 (stereo not shown) [Example 99, 1-Amino-9b-heptanamido-7-isopropyl-10-oxo-9b,10-dihydro-4bH-benzo[d]indeno[1,2-b]furan-4b-yl heptanoate]	> 50 µg/mL	7.7 µg/mL (≈ 14.4 µM)
CO[C@@]12Oc3cc(C(C)C)ccc3[C@]1(NC(N)=O)C(=O)c1ccccc12 [Example 100, 1-((4bS,9bS)-7-Isopropyl-4b-methoxy-10-oxo-9b,10-dihydro-4bH-indeno[1,2-b]benzofuran-9b-yl)urea]	40.6 µg/mL (≈ 115 µM)	
CNC(=O)N[C@@]12C(=O)c3ccccc3[C@]1(O)Oc1cc(C(C)C)ccc12 [Example 101, 1-((4bS,9bS)-4b-Hydroxy-7-isopropyl-10-oxo-9b,10-dihydro-4bH-indeno[1,2-b]benzofuran-9b-yl)-3-methylurea]	> 50 µg/mL	
CCNC(=O)N[C@@]12C(=O)c3ccccc3[C@]1(O)Oc1cc(C(C)C)ccc12 [Example 102, 1-Ethyl-3-((4bS,9bS)-4b-hydroxy-7-isopropyl-10-oxo-9b,10-dihydro-4bH-indeno[1,2-b]benzofuran-9b-yl)urea]	> 50 µg/mL	
CONC(=O)N[C@@]12C(=O)c3ccccc3[C@]1(O)Oc1cc(C(C)C)ccc12 [Example 103, 1-((4bS,9bS)-4b-Hydroxy-7-isopropyl-10-oxo-9b,10-dihydro-4bH-indeno[1,2-b]benzofuran-9b-yl)-3-methoxyurea]	> 50 µg/mL	
CC(=O)N1c2cc(C)c(C)cc2C2(O)C(=O)c3ccccc3C12O (stereo not shown) [Example 104, 5-Acetyl-4b,9b-dihydroxy-7,8-dimethyl-4b,5-dihydroindeno[1,2-b]indol-10(9bH)-one]	> 50 µg/mL	
CCC(=O)N1c2cc(C)c(C)cc2C2(O)C(=O)c3ccccc3C12O (stereo not shown) [Example 105, 4b,9b-Dihydroxy-7,8-dimethyl-5-propionyl-4b,5-dihydroindeno[1,2-b]indol-10(9bH)-one]	> 50 µg/mL	
Cc1cc2c(cc1C)C1(O)C(=O)c3ccccc3C1(O)N2 (stereo not shown) [Example 106, 4b,9b-Dihydroxy-7,8-dimethyl-4b,5-dihydroindeno[1,2-b]indol-10(9bH)-one]	3.53 µg/mL (≈ 12.5 µM)	
CC(=O)OC12C(=O)c3ccccc3C1(OC(C)=O)N(C(C)=O)c1cc(C)c(C)cc12 (stereo not shown) [Example 107, 5-Acetyl-7,8-dimethyl-10-oxo-4b,5,9b,10-tetrahydroindeno[1,2-b]indole-4b,9b-diyl diacetate]	> 50 µg/mL	
CC(=O)N1c2ccccc2C2(N)C(=O)c3ccccc3C12O (stereo not shown) [Example 108, 5-Acetyl-9b-amino-4b-hydroxy-5,9b-dihydro-4bH-indeno[1,2-b]indol-10-one]	1.81 µg/mL (≈ 6.15 µM)	
CC(=O)Nc1ccc([N+](=O)[O-])c2c1C(=O)C1(N)c3ccc(C(C)C)cc3OC21O (stereo not shown) [Example 109, N-(9b-Amino-4b-hydroxy-7-isopropyl-4-nitro-10-oxo-9b,10-dihydro-4bH-5-oxa-indeno[2,1-a]inden-1-yl)-acetamide]	> 50 µg/mL	
CC(=O)Nc1ccc([N+](=O)[O-])c2c1C(=O)C1(NC(C)=O)c3ccc(C(C)C)cc3OC21OC(C)=O (stereo not shown) [Example 110, Acetic acid 1,9b-bis-acetylamino-7-isopropyl-4-nitro-10-oxo-9b,10-dihydro-5-oxa-indeno[2,1-a]inden-4b-yl ester]	14.4 µg/mL (≈ 29.9 µM)	
COC(=O)OC12Oc3cc(C(C)C)ccc3C1(NC(C)=O)C(=O)c1ccccc12 (stereo not shown) [Example 111, 9b-Acetamido-7-isopropyl-10-oxo-9b,10-dihydro-4bH-indeno[1,2-b]benzofuran-4b-yl methyl carbonate]	43.6 µg/mL (≈ 110 µM)	
CCCCC(=O)OC12Oc3cc(C(C)C)ccc3C1(NC(C)=O)C(=O)c1ccccc12 (stereo not shown) [Example 112, 9b-Acetamido-7-isopropyl-10-oxo-9b,10-dihydro-4bH-indeno[1,2-b]benzofuran-4b-yl pentanoate]	42 µg/mL (≈ 99.6 µM)	
CCOC(=O)OC12Oc3cc(C(C)C)ccc3C1(NC(C)=O)C(=O)c1ccccc12 (stereo not shown) [Example 116, 9b-Acetamido-7-isopropyl-10-oxo-9b,10-dihydro-4bH-benzo[d]indeno[1,2-b]furan-4b-yl ethyl carbonate]	41.7 µg/mL (≈ 102 µM)	
CC(=O)NC12C(=O)c3ccccc3C1(OC(=O)C(C)(C)C)Oc1cc(C(C)C)ccc12 (stereo not shown) [Example 117, 9b-Acetamido-7-isopropyl-10-oxo-9b,10-dihydro-4bH-benzo[d]indeno[1,2-b]furan-4b-yl pivalate]	> 50 µg/mL	
CNC(=O)OC12Oc3cc(C(C)C)ccc3C1(NC(C)=O)C(=O)c1ccccc12 (stereo not shown) [Example 118, 9b-Acetamido-7-isopropyl-10-oxo-9b,10-dihydro-4bH-benzo[d]indeno[1,2-b]furan-4b-yl methylcarbamate]	> 50 µg/mL	
CC(=O)NC12Oc3cc(C(C)C)ccc3C1(NC(C)=O)C(=O)c1ccccc12 (stereo not shown) [Example 119]	38.2 µg/mL (≈ 101 µM)	
CC(C)c1ccc2c(c1)OC1(OCc3ccccc3)c3ccccc3C(=O)C21O (stereo not shown) [Example 120, 4b-(Benzyloxy)-9b-hydroxy-7-isopropyl-4bH-indeno[1,2-b]benzofuran-10(9bH)-one]	8.16 µg/mL (≈ 21.1 µM)	
